Laboratory results as given in paper PMC12030059, “Mechanistic Advances in the Therapeutic Application of Bixin for Lung Inflammation In Vitro and In Vivo” (Pharmaceuticals, 2025).
Converted amounts (≈) assume the structure as drawn.

What was measured:
[1] = system: RAW 264.7 macrophages; assay: MTT cell viability assay; assay type: cell-based; details: 12.5 to 200 μM, 3 h of exposure
Experimental: RAW 264.7 cells were plated (5 × 10^4 cells/well) in a 96-well plate with DMEM and 10% FBS. When cells reached 90% confluence, the 10% (v/v) FBS DMEM was discarded and replaced with the stimuli. […] The metabolism of MTT by the cells was monitored by the formation of insoluble salts, which were then dissolved in isopropyl alcohol. Absorbance was read at 570 nm using a Varioskan LUX (ThermoFisher Scientific, Waltham, MA, USA). […] Cell viability was normalized in all groups by the control (1% (v/v) FBS DMEM), with 10% (v/v) FBS in DMEM used as the positive growth control.

[2] = Kinetic solubility assay; assay type: physicochemical; details: aqueous buffer, kinetic from dmso stock, 37 °C
Experimental: These solutions were incubated in a shaking water bath at 37 °C for 4 and 24 h. Immediately after each incubation period, the samples were centrifuged at 21,000× g Universal Centrifuge 320R Hettich (Tuttlingen, Germany) at 22 °C. The supernatant was collected, filtered through a 0.44 μm Millipore filter (Sigma-Aldrich—Saint Louis, MO, USA) into a vial, and analyzed using a HPLC LC-20AD Shimadzu (Kyoto, Japan) coupled with a DAD detector set at 457 nm. The mobile phase consisted of acetonitrile and methanol (85:15 v/v) using a 100-5C18 Kromasil (Bohus, Sweden) analytical column (4.6 mm × 250 mm, 5 μm) as the stationary phase in isocratic mode at 22 °C with a flow rate of 1 mL/min. A calibration curve was prepared using bixin in acetonitrile at concentrations ranging from 0 to 200 μM and analyzed under the same HPLC conditions. LogS was calculated as the base-10 logarithm of the solubility (in μM) for each time point.

[3] = PAMPA-GIT permeability assay; assay type: in vitro ADME
From the text: The parallel artificial membrane permeability assay (PAMPA) utilizes a 96-well plate system in a “sandwich” format, where one plate is positioned above another (PAMPA). The upper plate, known as the donor compartment, contains the compounds (test or control) dissolved in a buffered solution. […] The lipid composition of the PVDF filter varies depending on the type of permeability test. For gastrointestinal tract (GIT) permeability assessments, L-α-soy phosphatidylcholine in dodecane is used. Optical density values are measured at specified wavelengths for each compound and compared against controls. For GIT permeability, the absorbed fraction (Fa%) and permeability (Pe) are determined. […] Compounds for these assays were diluted from a 10 mM stock solution. These assays were conducted using a 1 mg/mL stock solution per compound.

[4] = system: C57BL/6 mice challenged with intranasal LPS; assay: Intranasal LPS lung inflammation in mice, BAL cytokine ELISA; assay type: in vivo; details: 200 mg/kg gavage, 5 days
Experimental: Eight-week-old male C57BL/6 mice were obtained from the Multidisciplinary Center for Biological Research in Laboratory Animal Science (CEMIB/UNICAMP, Campinas, Brazil). The mice were provided with Purina chow ad libitum (Nuvilab, Curitiba, Brazil) and had unrestricted access to water in a controlled environment maintained at 22 ± 2 °C, 50–70% relative humidity, and a 12 h light/dark cycle (EB-273B, Insight Equipamentos Ltd., São Paulo, Brazil). They were acclimatized for two weeks before the experimental procedures. All experimental protocols were approved by the local Animal Ethics Committee (096/19).
To evaluate the pharmacological effects of potassium bixinate, the animals were divided into four groups (n = 5–7): (1) Control, (2) KBx, (3) LPS, and (4) LPS + KBx. For five consecutive days, animals in groups 2 and 4 were treated by oral gavage with 200 mg/kg of potassium bixinate diluted in PBS in a final volume of 100 μL, while animals in groups 1 and 3 were treated with 100 μL of PBS. On the sixth day, animals in groups 3 and 4 were challenged intranasally with 60 μg of LPS (extracted from Escherichia coli O55:B5) diluted in PBS (10 μL), while animals in groups 1 and 2 received 10 μL of PBS intranasally. Sixteen hours after LPS/PBS instillation, the animals were euthanized by cervical dislocation under isoflurane sedation.
Immediately following euthanasia, BAL was collected using an intratracheal cannula. The lavage was performed with 1.5 mL of saline solution (3 × 0.5 mL). The collected lavage fluid was centrifuged at 600× g for 10 min, and the supernatant was stored at −80 °C for subsequent enzyme-linked immunosorbent assay (ELISA) analysis.
Cytokine levels (IL-10 and KC; #900-K53K and #900-K127K) were quantified in BAL samples using an ELISA kit, following the manufacturer’s instructions (PeproTech, Neuilly Sur-Seine, France). A sample volume of 25 μL was used without dilution. The enzymatic reaction was initiated with peroxidase and a specific substrate, and the reaction was stopped before measuring absorbance at 450 nm and 570 nm using a Varioskan LUX spectrometer (ThermoFisher Scientific, Waltham, MA, USA). A calibration curve was generated using standard concentrations of the target protein, with the method showing linearity across a range of 2000–0 pg/mL.

| Compound | cell viability [1] | solubility at 4 h ([2]; PBS buffer, pH 7.4, 4 h) | solubility at 24 h ([2]; PBS buffer, pH 7.4, 24 h) | solubility at 4 h ([2]; buffered solution pH 2.0 (commercial), pH 2.0, 4 h) | solubility at 24 h ([2]; buffered solution pH 2.0 (commercial), pH 2.0, 24 h) | solubility at 4 h ([2]; potassium-phosphate-buffered saline solution (KPE) buffer, pH 6.6, 4 h) | solubility at 24 h ([2]; potassium-phosphate-buffered saline solution (KPE) buffer, pH 6.6, 24 h) | Papp ([3]; L-α-soy phosphatidylcholine in dodecane, read-out: Experimental Pe) | Experimental Fa ([3]; absorbed fraction) | IL-10 levels in BAL, KBx alone ([4]; no LPS) | KC levels in BAL, KBx alone vs control ([4]; no LPS) | IL-10 levels in BAL, LPS + KBx ([4]; then LPS 60 μg i.n., 16 h) | KC levels in BAL, LPS + KBx vs LPS ([4]; then LPS 60 μg i.n., 16 h) |
| --- | --- | --- | --- | --- | --- | --- | --- | --- | --- | --- | --- | --- | --- |
| COC(=O)/C=C/C(C)=C\C=C\C(C)=C\C=C\C=C(C)\C=C\C=C(C)\C=C\C(=O)O [HBx, (2E,4E,6E,8E,10E,12E,14E,16Z,18E)-20-methoxy-4,8,13,17-tetramethyl-20-oxoicosa-2,4,6,8,10,12,14,16,18-nonaenoic acid] | did not affect cell viability | 64 µM (≈ 25.2 µg/mL) | 43 µM (≈ 17 µg/mL) | < 1 µM | < 1 µM | 30 µM (≈ 11.8 µg/mL) | 11 µM (≈ 4.34 µg/mL) | 0.36 ×10⁻⁶ cm/s | 12.79% | – | – | – | – |
| potassium bixinate [KBx] | did not affect cell viability | – | – | – | – | – | – | – | – | comparable to the control | no significant effect on KC levels | can increase IL-10 production in the presence of LPS | significantly lower compared to the LPS group |
